Laboratory results: patent US11389435B2, “Compositions and methods for treating epilepsy” (BIOVISTA, INC., priority 2008, dated 2022)
Marks after values point to notes of the source that are not given here.

What was measured:
[1] = system: Male Wistar rats; experiment: Chronic anticonvulsant activity using the kainic acid seizure test in rat; assay type: in vivo; conditions: for Wet-shakes Presence: 120 min observation; for Wet-shakes Presence / Rearings Presence / Rearings with Forelimb Clonus Presence: out of 10 animals; for Forelimb Clonus No.: average number of all animals; for Rearings Latency / Rearings with Forelimb Clonus Latency / Wet-shakes Latency: average of all animals
From the text: Chronic Anticonvulsant Activity Using the Kainic Acid Seizure Test in Rat. Dimebolins, including the compounds described herein, are shown to be efficacious in the rat kainic acid anticonvulsant activity model. It is appreciated that this model, though general, may also most closely correspond to and/or be more predictive of temporal lobe epilepsy found in humans. However, it is to be understood that this model is a general surrogate for all types of epilepsy.
Male Wistar rats (such as Male Rj: Wistar (Han) rats, weighing 180-280 g at the day of testing, from Elevage Janvier, 53940 Le Genest-Saint-Isle, France) are placed in groups of 4-5 in macrolon cages (41×25×18 cm or 44×28×19 cm) on wood litter (Litalabo—SPPS, 95100 Argenteuil, France), with free access to food and water until tested, and maintained under artificial lighting (12 hours) between 7:00 and 19:00 in a controlled ambient temperature of about 21° C., and relative humidity between 30-80%. Animals are acclimatized to laboratory conditions for least 3 days. Animals surviving the experiments are sacrificed at the end of the experiments by exposure to a mixture of O2/CO2 (20%/80%) followed by CO2.
Dimebon, or an analog or derivative thereof, either alone or in combination with one or more other compounds as described herein, is evaluated at 3 doses (e.g. 1, 3, and 10 mg/kg), administered i.p. once daily for seven days, with a administration volume of 5 mL/kg. The last administration (7th) is injected 30 minutes prior to kainic acid administration, and compared with a vehicle control group. The test article (single compound or combination) is prepared in 0.2% HPMC in physiological saline as follows: The test article is tested for solubility by cold stirring of the highest intended dose for 10 minutes in physiological saline. If soluble, physiological saline serves as vehicle, and doses are prepared W/V (stock) and then V/V (serial dilutions). Preparations may be made freshly for each day of administration and precautions may be taken to preserve the homogeneity of suspensions (if applicable) during the period of administration.
Diazepam (4 mg/kg i.p.) is administered in 0.2% HPMC in physiological saline 30 minutes prior to KA, and is used as reference substance (positive control). Kainic acid (12 mg/kg i.p.) dissolved in physiological saline is administered 30 minutes following the 7th administration of test article, diazepam, or vehicle control. Additional details are described in Ben-Ari et al, Neuroscience, 6, 1361-1391, 1981 for detecting anticonvulsant activity related to a glutamatergic mechanism.
Animals are injected with kainic acid (12 mg/kg i.p.). The occurrences of the following symptoms are noted over a 120 minute period after kainic acid injection: wet-shakes, rearings, and rearings with forelimb clonus. […] In addition, the latencies to the first appearance of the symptoms are measured and the number of forelimb clonus are counted. The number of forelimb clonus episodes per time interval starting from the first occurrence of forelimb clonus will be considered regarding the severity scale. 10 animals are studied per group. The test is performed blind. Quantitative data is analyzed by comparing treated groups with vehicle control using unpaired Student's t tests. Quantal data is analyzed by comparing treated groups with vehicle control using Fisher's Exact Probability tests.

[2] = system: Male Wistar rats; experiment: Acute anticonvulsant activity using the kainic acid seizure test in rat; assay type: in vivo; conditions: single dose 100 mg/kg i.p. 60 minutes prior to kainic acid
Description: Male Wistar rats (such as Male Rj: […] Animals are acclimatized to laboratory conditions for least 3 days. […] Additional details are described in Ben-Ari et al, Neuroscience, 6, 1361-1391, 1981 for detecting anticonvulsant activity related to a glutamatergic mechanism. Animals are injected with kainic acid (12 mg/kg i.p.). The occurrences of the following symptoms are noted over a 120 minute period after kainic acid injection: wet-shakes, rearings, and rearings with forelimb clonus. […] In addition, the latencies to the first appearance of the symptoms are measured and the number of forelimb clonus are counted. The number of forelimb clonus episodes per time interval starting from the first occurrence of forelimb clonus will be considered regarding the severity scale. 10 animals are studied per group. The test is performed blind. Quantitative data is analyzed by comparing treated groups with vehicle control using unpaired Student's t tests. Quantal data is analyzed by comparing treated groups with vehicle control using Fisher's Exact Probability tests. Acute Anticonvulsant Activity Using the Kainic Acid Seizure Test in Rat. Dimebon, or an analog or derivative thereof, including the compounds described herein, is shown to be efficacious in the rat kainic acid anticonvulsant activity model. […] The 100 mg/kg formulation is prepared in 0.2% HPMC in physiological saline.

[3] = system: NMDA receptor; conditions: Grigoriev et al. Chim. Pharm. Journal, 1988; cited from earlier work
[4] = at the doses in which it produces its anti-NMDA effect; cited from earlier work
[5] = 1 mg/kg i.p. once daily 7 days, last 30 min before kainic acid
[6] = 1 mg/kg i.p. once daily 7 days, last 30 min before kainic acid 12 mg/kg i.p.
[7] = 3 mg/kg i.p. once daily 7 days, last 30 min before kainic acid
[8] = 3 mg/kg i.p. once daily 7 days, last 30 min before kainic acid 12 mg/kg i.p.
[9] = 10 mg/kg i.p. once daily 7 days, last 30 min before kainic acid
[10] = 10 mg/kg i.p. once daily 7 days, last 30 min before kainic acid 12 mg/kg i.p.
[11] = reference substance 4 mg/kg i.p. 30 minutes prior to kainic acid
[12] = reference substance 4 mg/kg i.p. 30 minutes prior to kainic acid 12 mg/kg i.p.

For `Cc1ccc2c(c1)c1c(n2CCc2ccc(C)nc2)CCN(C)C1` [Dimebon, 2,8-dimethyl-5-[2-(6-methyl-3-pyridyl)ethyl]-2,3,4,5-tetrahydro-1H-pyrido[4,3-b]indole], the “Forelimb Clonus No., % change from vehicle” value (shortened to “Forelimb Clonus No., % change”) [1, 5] was −32%, the “Rearings Latency, % change from vehicle” value [1, 5] was “+24%” and the “Rearings Presence, % change from vehicle” value [1, 5] was −33%. For the same compound, the “Rearings with Forelimb Clonus Latency, % change from vehicle” value [1, 5] was “+19%”, the “Rearings with Forelimb Clonus Presence, % change from vehicle” value [1, 5] was −30% and the “Wet-shakes Latency, % change from vehicle” value (“Wet-shakes Latency, % change” for short) [1, 5] was “+47%^(h)”. The “Wet-shakes Presence, % change from vehicle” value (shortened to “Wet-shakes Presence, % change”) [1, 5] was −20%^(g), the “Wet-shakes Presence” value [1, 6] was 8 ^NS and the “Forelimb Clonus No.” value [1, 6] was 1.9 ^NS. The “Rearings Latency” value [1, 6] was 4896 ^NS seconds, the “Rearings with Forelimb Clonus Latency” value [1, 6] was 6009 * seconds and the “Wet-shakes Latency” value [1, 6] was 3615 ^NS seconds. The “Rearings Presence” value [1, 6] was 6 ^NS, the “Rearings with Forelimb Clonus Presence” value [1, 6] was 7 ^NS and the “Forelimb Clonus No., % change” value [1, 7] was −11%. For the same compound, the “Rearings Latency, % change from vehicle” value [1, 7] was “+4%”, the “Rearings Presence, % change from vehicle” value [1, 7] was 0% and the “Rearings with Forelimb Clonus Latency, % change from vehicle” value [1, 7] was “+7%”. For the same compound, the “Rearings with Forelimb Clonus Presence, % change from vehicle” value [1, 7] was −10%, the “Wet-shakes Latency, % change” value [1, 7] was “+9%” and the “Wet-shakes Presence, % change” value [1, 7] was 0%. The “Wet-shakes Presence” value [1, 8] was 10 ^NS, the “Forelimb Clonus No.” value [1, 8] was 2.5 ^NS and the “Rearings Latency” value [1, 8] was 4134 ^NS seconds. For the same compound, the “Rearings with Forelimb Clonus Latency” value [1, 8] was 5366 ^NS seconds, the “Wet-shakes Latency” value [1, 8] was 2666 ^NS seconds and the “Rearings Presence” value [1, 8] was 9 ^NS. For the same compound, the “Rearings with Forelimb Clonus Presence” value [1, 8] was 9 ^NS, the “Forelimb Clonus No., % change” value [1, 9] was −18% and the “Rearings Latency, % change from vehicle” value [1, 9] was “+14%”. The “Rearings Presence, % change from vehicle” value [1, 9] was −11%, the “Rearings with Forelimb Clonus Latency, % change from vehicle” value [1, 9] was “+7%” and the “Rearings with Forelimb Clonus Presence, % change from vehicle” value [1, 9] was −10%. For the same compound, the “Wet-shakes Latency, % change” value [1, 9] was “+17%”, the “Wet-shakes Presence, % change” value [1, 9] was 0% and the “Wet-shakes Presence” value [1, 10] was 10 ^NS. For the same compound, the “Forelimb Clonus No.” value [1, 10] was 2.3 ^NS, the “Rearings Latency” value [1, 10] was 4526 ^NS seconds and the “Rearings with Forelimb Clonus Latency” value [1, 10] was 5410 ^NS seconds. For the same compound, the “Wet-shakes Latency” value [1, 10] was 2865 ^NS seconds, the “Rearings Presence” value [1, 10] was 8 ^NS and the “Rearings with Forelimb Clonus Presence” value [1, 10] was 9 ^NS. For the same compound, the “Forelimb Clonus No., % change” value [2] was −54%, the “Rearings Latency, % change from vehicle” value [2] was “+57%” and the “Rearings Presence, % change from vehicle” value [2] was −78%. The “Rearings with Forelimb Clonus Latency, % change from vehicle” value [2] was −10%, the “Rearings with Forelimb Clonus Presence, % change from vehicle” value [2] was −40% and the “Wet-shakes Latency, % change” value [2] was “+79%^(f)”. The “Wet-shakes Presence, % change” value [2] was −50%^(e), the “Forelimb Clonus No.” value ([2]; average number of all animals) was 1.3 ^NS and the “Rearings Latency” value ([2]; average of all animals) was 6197 * seconds. The “Rearings with Forelimb Clonus Latency” value ([2]; average of all animals) was 4546 ^NS seconds, the “Wet-shakes Latency” value ([2]; average of all animals) was 4394 ^NS seconds and the “Rearings Presence” value ([2]; out of 10 animals) was 2 *. For the same compound, the “Rearings with Forelimb Clonus Presence” value ([2]; out of 10 animals) was 6 ^NS and the “Wet-shakes Presence” value ([2]; out of 10 animals) was 5 ^NS.

In the case of `NC(CCCP(=O)(O)O)C(=O)O` (stereo not drawn) [AP5, 2-amino-5-phosphonovaleric acid], the “ED50 (anti-NMDA effect)” value [3] is listed as 190 mg/kg and the neurotoxic effects [4] is listed as “disturbance of coordination of movement and a sedative effect”.

With `CN1C(=O)CN=C(c2ccccc2)c2cc(Cl)ccc21` [Diazepam] the “Forelimb Clonus No., % change” value [1, 11] was −79%, the “Rearings Latency, % change from vehicle” value [1, 11] was “+8%” and the “Rearings Presence, % change from vehicle” value [1, 11] was 0%. For the same compound, the “Rearings with Forelimb Clonus Latency, % change from vehicle” value [1, 11] was “+36%”, the “Rearings with Forelimb Clonus Presence, % change from vehicle” value [1, 11] was −60% and the “Wet-shakes Latency, % change” value [1, 11] was “+53%”. The “Wet-shakes Presence, % change” value [1, 11] was −10%, the “Wet-shakes Presence” value [1, 12] was 9 ^NS and the “Forelimb Clonus No.” value [1, 12] was 0.6 **. The “Rearings Latency” value [1, 12] was 4282 ^NS seconds, the “Rearings with Forelimb Clonus Latency” value [1, 12] was 6841 *** seconds and the “Wet-shakes Latency” value [1, 12] was 3753 * seconds. For the same compound, the “Rearings Presence” value [1, 12] was 9 ^NS and the “Rearings with Forelimb Clonus Presence” value [1, 12] was 4 *^.
